These results are taken from patent US12122761B2, “2-azaspiro[3.4]octane derivatives as M4 agonists” (NOVARTIS AG, priority 2019, dated 2024).

Assay [1] has as its target T1, human cloned CHRM2 receptor (M2_CHO cells) (Homo sapiens, UniProt P08172).
T1 construct: expressed in transfected cells; host or cells: CHO-K1
T1 sequence (P08172 1-466): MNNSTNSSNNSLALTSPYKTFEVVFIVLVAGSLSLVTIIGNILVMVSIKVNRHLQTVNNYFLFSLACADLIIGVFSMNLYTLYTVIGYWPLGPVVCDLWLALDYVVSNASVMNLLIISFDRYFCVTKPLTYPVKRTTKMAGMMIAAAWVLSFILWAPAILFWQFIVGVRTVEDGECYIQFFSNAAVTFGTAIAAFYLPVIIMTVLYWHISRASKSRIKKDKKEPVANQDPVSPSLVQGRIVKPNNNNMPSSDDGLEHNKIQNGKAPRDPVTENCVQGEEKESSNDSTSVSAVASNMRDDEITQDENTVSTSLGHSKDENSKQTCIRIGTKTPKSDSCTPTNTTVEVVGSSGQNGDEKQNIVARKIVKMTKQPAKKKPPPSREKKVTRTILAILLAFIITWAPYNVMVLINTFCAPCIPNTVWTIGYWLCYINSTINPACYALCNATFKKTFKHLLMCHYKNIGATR
Kind of assay: CHRM2 Ca++ Flux Assay (agonist mode, FDSS 7000EX). The assay is classed as cell-based. Conditions: for Emax: Percent Activity measured to EC100 of Carbachol, read-out: M2 FDSS PA; for EC50: agonist mode, geometric mean if tested more than once, read-out: M2 FDSS EC50. Summed up:
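Agonist-mode Ca++ flux in CHO-K1 cells stably expressing human CHRM2, dye-loaded, then held 60 min at room temperature in buffer with 20 μM ATP before compound addition; traces read over 3 minutes. Four-parameter fit of triplicate wells; percent activity relative to Carbachol EC100.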

Assay [2] concerns the target T2, Cloned human M1 receptor (CHRM1) stably expressed in HEK293 cells (Homo sapiens, UniProt P11229).
T2 construct: expressed in transfected cells; host or cells: HEK293
T2 sequence (P11229 1-460): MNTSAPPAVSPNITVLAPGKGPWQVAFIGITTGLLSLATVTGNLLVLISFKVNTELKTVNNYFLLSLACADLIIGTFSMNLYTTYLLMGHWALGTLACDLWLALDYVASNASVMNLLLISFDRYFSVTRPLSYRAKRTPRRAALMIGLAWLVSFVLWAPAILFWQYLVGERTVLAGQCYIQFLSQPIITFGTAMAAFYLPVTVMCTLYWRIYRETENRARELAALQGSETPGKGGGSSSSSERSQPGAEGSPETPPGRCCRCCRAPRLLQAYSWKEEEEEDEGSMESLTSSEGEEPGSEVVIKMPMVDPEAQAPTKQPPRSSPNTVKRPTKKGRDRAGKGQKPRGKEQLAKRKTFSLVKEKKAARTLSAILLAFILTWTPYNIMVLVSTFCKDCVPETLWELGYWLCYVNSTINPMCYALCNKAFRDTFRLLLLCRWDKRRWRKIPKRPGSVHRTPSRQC
Kind of assay: CHRM1 Ca++ Flux Assay (agonist mode, FDSS 7000EX). The assay is classed as cell-based. Conditions: for Emax: HEK293, Percent Activity, read-out: M1 FDSS PA; for EC50: geometric mean if tested more than once. Summed up:
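Compounds tested as agonists at 11 concentrations in triplicate, with calcium traces captured over 3 minutes. Cells were HEK293 with stable human CHRM1 expression, plated overnight at 25K/well and loaded with calcium dye. Responses normalized to carbachol EC100 and fitted by four-parameter nonlinear regression.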

For orientation: EC50 means the midpoint of the concentration-response curve.

`Fc1ccc(C2CCOC2)c(C2CCN([C@@H]3CCC4(C3)CN(c3nnco3)C4)CC2)c1` (mixture of isomers) [Example 2J, 2-((6R)-6-(4-(5-fluoro-2-(tetrahydrofuran-3-yl)phenyl)piperidin-1-yl)-2-azaspiro[3.4]octan-2-yl)-1,3,4-oxadiazole]: in assay [1], the Emax came out at 37% and the EC50 was 36 nM. In assay [2], the Emax came out at 97% and the EC50 was 46 nM.
Turning to `O=C(C1COC1)N1CC2(CC[C@H](N3CCC(c4ccccc4OC(F)(F)F)CC3)C2)C1` (single isomer, unassigned) [Example 8G], in assay [1], the Emax was 0%. Also, in assay [2], the Emax was 0% and the EC50 is > 25000 nM.
On to `O=C(N1CC2(CC[C@H](N3CCC(c4ccccc4C4CCOCC4)CC3)C2)C1)C1(F)CC1` (single isomer, unassigned) [Example 9M], for which the Emax in assay [1] is 0%. Further, in assay [2], the Emax came out at 0% and the EC50 worked out at 6440 nM.
With `c1ccc(C2CCN([C@H]3CCC4(C3)CN(c3nnco3)C4)CC2)c(C2CCOCC2)c1` (single isomer, unassigned) [Example 10T], the Emax in assay [1] came to 0%; in assay [2] it was 21%. The compound also had an EC50 in assay [2] of 3920 nM.
For `c1ccc(C2CCN([C@@H]3CCC4(C3)CN(c3nnco3)C4)CC2)c(OC2CC3(COC3)C2)c1` [Example 1A, (R)-2-(6-(4-(2-((2-oxaspiro[3.3]heptan-6-yl)oxy)phenyl)piperidin-1-yl)-2-azaspiro[3.4]octan-2-yl)-1,3,4-oxadiazole] the same measures were 0%, 63% and 237 nM.
On to `c1ccc(C2CCN([C@@H]3CCC4(C3)CN(c3nnco3)C4)CC2)c(OC2COC2)c1` [Example 1D, (R)-2-(6-(4-(2-(oxetan-3-yloxy)phenyl)piperidin-1-yl)-2-azaspiro[3.4]octan-2-yl)-1,3,4-oxadiazole], for which, in assay [1], the Emax stood at 40% and the EC50 came to 35 nM. For the same compound, in assay [2], the Emax was 89% and it took 19 nM to reach a half-maximal effect (EC50).
Take `c1ccc(C2CCN([C@@H]3CCC4(C3)CN(c3nnco3)C4)CC2)c(OC[C@@H]2COCCO2)c1` [Example 1E, 2-((R)-6-(4-(2-(((S)-1,4-dioxan-2-yl)methoxy)phenyl)piperidin-1-yl)-2-azaspiro[3.4]octan-2-yl)-1,3,4-oxadiazole]: the results for the Emax in assay [1] and in assay [2] were 14% and 85%, respectively. Moreover, the EC50 was found to be 21 nM in assay [1] and 57 nM in assay [2].
For the compound `CC(C)(O)CCOc1ccccc1C1CCN([C@@H]2CCC3(C2)CN(c2nnco2)C3)CC1` [Example 1F], the Emax in assay [1] turned out to be 0%. In assay [2], the Emax is 79% and the EC50 was 31 nM.
Regarding `c1ccc(C2CCN([C@@H]3CCC4(C3)CN(c3nncs3)C4)CC2)c(OCC2COC2)c1` [Example 1G, (R)-2-(6-(4-(2-(oxetan-3-ylmethoxy)phenyl)piperidin-1-yl)-2-azaspiro[3.4]octan-2-yl)-1,3,4-thiadiazole], the Emax was found to be 38% in assay [1] and 80% in assay [2]. Besides, the values for the EC50 in assay [1] and in assay [2] were 75 nM and 72 nM, respectively.
In the same order, the values of `FC1(COc2ccccc2C2CCN([C@@H]3CCC4(C3)CN(c3nncs3)C4)CC2)COC1` [Example 1H, (R)-2-(6-(4-(2-((3-fluorooxetan-3-yl)methoxy)phenyl)piperidin-1-yl)-2-azaspiro[3.4]octan-2-yl)-1,3,4-thiadiazole] are 41%, 88%, 30 nM and 48 nM.
Consider `c1ccc(C2CCN([C@@H]3CCC4(C3)CN(c3nncs3)C4)CC2)c(OCC2CCOCC2)c1` [Example 1I, (R)-2-(6-(4-(2-((tetrahydro-2H-pyran-4-yl)methoxy)phenyl)piperidin-1-yl)-2-azaspiro[3.4]octan-2-yl)-1,3,4-thiadiazole], for which the Emax worked out at 28% in assay [1] and 55% in assay [2]. In addition, the values for the EC50 in assay [1] and in assay [2] were 92 nM and 616 nM, respectively.
Consider `FC1(COc2ccccc2C2CCN([C@@H]3CCC4(C3)CN(c3nncs3)C4)CC2)CCOCC1` [Example 1J, (R)-2-(6-(4-(2-((4-fluorotetrahydro-2H-pyran-4-yl)methoxy)phenyl)piperidin-1-yl)-2-azaspiro[3.4]octan-2-yl)-1,3,4-thiadiazole], for which, in assay [1], the Emax is 72% and the EC50 is 51 nM. For the same compound, in assay [2], the Emax came to 78% and the EC50 worked out at 182 nM.
For `c1ccc(C2CCN([C@@H]3CCC4(C3)CN(c3cncnc3)C4)CC2)c(OC2COC2)c1` [Example 1K, (R)-6-(4-(2-(oxetan-3-yloxy)phenyl)piperidin-1-yl)-2-(pyrimidin-5-yl)-2-azaspiro[3.4]octane] the same measures were 19%, 29 nM, 85% and 24 nM.
For `c1ccc(C2CCN([C@@H]3CCC4(C3)CN(c3cncnc3)C4)CC2)c(OC2CCOCC2)c1` [Example 1L, (R)-2-(pyrimidin-5-yl)-6-(4-(2-((tetrahydro-2H-pyran-4-yl)oxy)phenyl)piperidin-1-yl)-2-azaspiro[3.4]octane] the same measures were 28%, 214 nM, 42% and 166 nM.
In the same order, the values of `c1ccc(C2CCN([C@@H]3CCC4(C3)CN(c3cncnc3)C4)CC2)c(OCC2CCOCC2)c1` [Example 1M, (R)-2-(pyrimidin-5-yl)-6-(4-(2-((tetrahydro-2H-pyran-4-yl)methoxy)phenyl)piperidin-1-yl)-2-azaspiro[3.4]octane] are 30%, 402 nM, 11% and 1550 nM.
`c1ccc(C2CCN([C@@H]3CCC4(C3)CN(c3cncnc3)C4)CC2)c(OCC2COC2)c1` [Example 1N, (R)-6-(4-(2-(oxetan-3-ylmethoxy)phenyl)piperidin-1-yl)-2-(pyrimidin-5-yl)-2-azaspiro[3.4]octane]: in assay [1], the Emax worked out at 10% and the EC50 came out at 7 nM. Also, in assay [2], the Emax came out at 70% and the EC50 amounted to 69 nM.
On to `c1ccc(C2CCN([C@@H]3CCC4(C3)CN(c3cncnc3)C4)CC2)c(OC2CC3(COC3)C2)c1` [Example 1O, (R)-6-(4-(2-((2-oxaspiro[3.3]heptan-6-yl)oxy)phenyl)piperidin-1-yl)-2-(pyrimidin-5-yl)-2-azaspiro[3.4]octane], for which, in assay [1], the Emax stood at 0%. Besides, in assay [2], the Emax worked out at 0% and the EC50 was > 25000 nM.
Consider `c1ccc(C2CCN([C@@H]3CCC4(C3)CN(c3cncnc3)C4)CC2)c(O[C@@H]2CCOC2)c1` [Example 1P, (R)-2-(pyrimidin-5-yl)-6-(4-(2-(((R)-tetrahydrofuran-3-yl)oxy)phenyl)piperidin-1-yl)-2-azaspiro[3.4]octane], for which the results for the Emax in assay [1] and in assay [2] were 7% and 43%, respectively. Besides, the EC50 in assay [1] amounted to 7 nM; in assay [2], 98 nM.
In the same order, the values of `CC(C)(O)COc1ccccc1C1CCN([C@@H]2CCC3(C2)CN(c2nnco2)C3)CC1` [Example 2A, (R)-1-(2-(1-(2-(1,3,4-oxadiazol-2-yl)-2-azaspiro[3.4]octan-6-yl)piperidin-4-yl)phenoxy)-2-methylpropan-2-ol] are 12%, 74%, 117 nM and 147 nM.
For `COc1ccc(F)cc1C1CCN([C@@H]2CCC3(C2)CN(C(=O)C2COC2)C3)CC1` [Example 6A, (R)-(6-(4-(5-fluoro-2-methoxyphenyl)piperidin-1-yl)-2-azaspiro[3.4]octan-2-yl)(oxetan-3-yl)methanone], in assay [1], the Emax was 10% and the EC50 worked out at 32 nM.
For `CCOc1ccccc1C1CCN([C@@H]2CCC3(C2)CN(C(=O)C2COC2)C3)CC1` [Example 7J, (R)-(6-(4-(2-ethoxyphenyl)piperidin-1-yl)-2-azaspiro[3.4]octan-2-yl)(oxetan-3-yl)methanone] the same measures were 33% and 207 nM.
